In test [1] the target is T1, KDM4B (Homo sapiens, UniProt O94953).
T1 sequence (O94953 1-1096): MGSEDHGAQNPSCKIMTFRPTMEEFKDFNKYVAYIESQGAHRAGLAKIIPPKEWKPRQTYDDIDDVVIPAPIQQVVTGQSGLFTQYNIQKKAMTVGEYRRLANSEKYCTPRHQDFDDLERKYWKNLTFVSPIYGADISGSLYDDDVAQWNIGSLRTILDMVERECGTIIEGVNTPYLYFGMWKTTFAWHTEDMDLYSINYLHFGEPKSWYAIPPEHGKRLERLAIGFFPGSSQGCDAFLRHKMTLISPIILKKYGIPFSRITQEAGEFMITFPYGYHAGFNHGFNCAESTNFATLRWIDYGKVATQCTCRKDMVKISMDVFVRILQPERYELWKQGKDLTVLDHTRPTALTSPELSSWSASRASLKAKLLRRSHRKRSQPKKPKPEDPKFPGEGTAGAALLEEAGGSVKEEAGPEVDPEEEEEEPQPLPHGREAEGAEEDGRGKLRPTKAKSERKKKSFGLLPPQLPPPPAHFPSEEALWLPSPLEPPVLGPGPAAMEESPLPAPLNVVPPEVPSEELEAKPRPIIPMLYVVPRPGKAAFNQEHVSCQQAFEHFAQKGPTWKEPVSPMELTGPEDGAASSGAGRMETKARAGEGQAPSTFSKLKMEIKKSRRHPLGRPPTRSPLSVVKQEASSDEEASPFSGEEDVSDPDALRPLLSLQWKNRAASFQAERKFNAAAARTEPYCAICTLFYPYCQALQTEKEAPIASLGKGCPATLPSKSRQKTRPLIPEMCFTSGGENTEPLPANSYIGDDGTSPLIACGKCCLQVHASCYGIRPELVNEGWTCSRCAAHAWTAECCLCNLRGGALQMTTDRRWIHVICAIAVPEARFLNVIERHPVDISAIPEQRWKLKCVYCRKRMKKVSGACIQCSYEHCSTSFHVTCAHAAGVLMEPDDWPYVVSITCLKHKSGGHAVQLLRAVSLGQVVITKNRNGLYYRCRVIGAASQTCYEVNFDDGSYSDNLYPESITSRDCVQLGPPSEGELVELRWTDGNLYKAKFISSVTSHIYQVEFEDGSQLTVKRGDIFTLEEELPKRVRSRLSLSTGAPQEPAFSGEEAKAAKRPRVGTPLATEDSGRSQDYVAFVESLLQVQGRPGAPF
The test can be described thus: Western blot of histone marks in 293T cells expressing KDM4B. The test is classed as cell-based. Conditions: treated 24 hours. Background: A western blot detects proteins with antibodies after separation by electrophoresis.

In a further test the test system is PAX3-FOXO1. Description: Western blot of PAX3-FOXO1 in Rh30 cells. Conditions: 24 hr. The test is classed as cell-based.
Test [2] addresses T1, KDM4B. Description: Western blot of histone methyl marks in U2OS cells expressing KDM4B. The conditions noted are these: 1uM, not on H3K4me3.
The target of another test is KDM5A (Homo sapiens, UniProt P29375). Description: ALPHA Screen demethylation assay. In kind it is biochemical. Conditions: IC50 (μM) KDM5A.
KDM5A, sequence (P29375 whole entry): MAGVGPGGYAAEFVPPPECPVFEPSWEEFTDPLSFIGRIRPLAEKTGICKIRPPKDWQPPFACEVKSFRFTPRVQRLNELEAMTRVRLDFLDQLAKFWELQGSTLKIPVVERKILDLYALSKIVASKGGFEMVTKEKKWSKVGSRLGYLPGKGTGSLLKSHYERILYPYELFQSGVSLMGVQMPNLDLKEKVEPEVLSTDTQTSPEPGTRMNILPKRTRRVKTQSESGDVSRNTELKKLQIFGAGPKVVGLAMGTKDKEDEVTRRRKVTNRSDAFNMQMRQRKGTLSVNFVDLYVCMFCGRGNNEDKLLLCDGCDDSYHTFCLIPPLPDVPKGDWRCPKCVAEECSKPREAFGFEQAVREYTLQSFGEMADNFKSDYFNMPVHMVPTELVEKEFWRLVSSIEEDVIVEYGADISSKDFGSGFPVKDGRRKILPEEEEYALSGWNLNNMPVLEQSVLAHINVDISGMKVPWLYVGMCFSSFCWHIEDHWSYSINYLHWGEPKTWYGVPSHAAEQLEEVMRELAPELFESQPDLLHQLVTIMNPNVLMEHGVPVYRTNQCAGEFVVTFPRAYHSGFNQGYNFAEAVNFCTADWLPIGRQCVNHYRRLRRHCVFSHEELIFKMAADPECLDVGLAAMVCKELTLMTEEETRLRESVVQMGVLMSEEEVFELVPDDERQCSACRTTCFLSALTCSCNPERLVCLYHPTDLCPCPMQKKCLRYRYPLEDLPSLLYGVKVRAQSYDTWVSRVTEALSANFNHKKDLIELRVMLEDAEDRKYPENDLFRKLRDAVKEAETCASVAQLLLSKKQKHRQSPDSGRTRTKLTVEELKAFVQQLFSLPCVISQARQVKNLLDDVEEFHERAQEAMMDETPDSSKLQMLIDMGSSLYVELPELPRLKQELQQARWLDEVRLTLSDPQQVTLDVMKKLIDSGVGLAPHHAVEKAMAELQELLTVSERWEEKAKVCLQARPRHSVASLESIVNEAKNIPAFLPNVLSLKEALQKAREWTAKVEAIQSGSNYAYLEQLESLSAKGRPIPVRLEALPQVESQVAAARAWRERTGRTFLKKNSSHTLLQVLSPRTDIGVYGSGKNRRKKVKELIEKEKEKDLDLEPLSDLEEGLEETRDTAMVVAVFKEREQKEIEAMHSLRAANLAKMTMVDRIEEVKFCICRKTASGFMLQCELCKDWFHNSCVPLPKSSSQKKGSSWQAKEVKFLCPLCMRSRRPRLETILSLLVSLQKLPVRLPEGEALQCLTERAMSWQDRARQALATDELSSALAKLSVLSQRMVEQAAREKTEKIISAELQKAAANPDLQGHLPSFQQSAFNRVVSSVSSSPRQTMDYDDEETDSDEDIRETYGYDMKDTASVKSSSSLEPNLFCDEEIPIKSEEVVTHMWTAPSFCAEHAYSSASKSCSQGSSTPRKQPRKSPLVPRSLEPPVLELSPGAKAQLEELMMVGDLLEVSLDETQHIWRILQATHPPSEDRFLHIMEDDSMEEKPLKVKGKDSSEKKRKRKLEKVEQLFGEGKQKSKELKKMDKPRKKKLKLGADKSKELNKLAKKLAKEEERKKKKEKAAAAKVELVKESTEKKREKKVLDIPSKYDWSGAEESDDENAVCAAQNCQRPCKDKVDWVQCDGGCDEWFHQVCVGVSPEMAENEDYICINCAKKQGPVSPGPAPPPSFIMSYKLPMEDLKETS
A further test deals with T2, KDM4C (Homo sapiens, UniProt Q9H3R0).
T2 sequence (Q9H3R0 1-1056): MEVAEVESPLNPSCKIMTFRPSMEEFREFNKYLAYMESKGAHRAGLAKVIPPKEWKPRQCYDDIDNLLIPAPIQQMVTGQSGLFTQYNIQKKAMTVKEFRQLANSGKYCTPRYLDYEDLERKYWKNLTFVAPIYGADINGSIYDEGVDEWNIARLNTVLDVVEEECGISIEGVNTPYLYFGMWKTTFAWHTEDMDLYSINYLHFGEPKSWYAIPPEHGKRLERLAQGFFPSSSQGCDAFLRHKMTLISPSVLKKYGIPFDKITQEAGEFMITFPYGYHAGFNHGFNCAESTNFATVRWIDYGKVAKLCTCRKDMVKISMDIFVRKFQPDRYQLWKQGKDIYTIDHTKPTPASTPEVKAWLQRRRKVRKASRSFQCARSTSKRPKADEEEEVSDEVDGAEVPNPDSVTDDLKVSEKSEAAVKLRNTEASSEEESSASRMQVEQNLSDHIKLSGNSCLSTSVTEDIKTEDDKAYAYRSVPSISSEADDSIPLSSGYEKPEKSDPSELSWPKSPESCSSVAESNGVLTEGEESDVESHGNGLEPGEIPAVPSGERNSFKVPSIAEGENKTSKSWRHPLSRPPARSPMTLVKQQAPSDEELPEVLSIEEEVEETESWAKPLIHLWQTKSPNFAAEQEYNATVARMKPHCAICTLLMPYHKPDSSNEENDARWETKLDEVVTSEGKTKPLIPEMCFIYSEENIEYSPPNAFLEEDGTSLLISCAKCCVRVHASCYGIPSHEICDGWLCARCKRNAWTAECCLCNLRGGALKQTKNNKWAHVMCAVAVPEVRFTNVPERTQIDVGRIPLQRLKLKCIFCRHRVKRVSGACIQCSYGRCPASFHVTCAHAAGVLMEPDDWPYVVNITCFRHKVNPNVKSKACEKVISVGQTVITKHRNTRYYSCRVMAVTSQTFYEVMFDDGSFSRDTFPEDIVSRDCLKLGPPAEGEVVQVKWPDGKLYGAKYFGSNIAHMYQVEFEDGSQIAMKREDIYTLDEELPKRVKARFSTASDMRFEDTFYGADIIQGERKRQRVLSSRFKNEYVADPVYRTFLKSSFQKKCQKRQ
Description: ALPHA Screen demethylation assay. Conditions: IC50 (μM) KDM4C. The test is classed as biochemical.

For test [3], the system named is H3K9me3 and H3K36me3 peaks. Description: ChIP-seq of H3K9me3 and H3K36me3 in Rh30 cells. In kind it is cell-based, human. The conditions noted are these: 1μM, 24 hr.
The test system of test [4] is KDM4 substrates H3K9me3 and H3K36me3. Description: Western blot of H3K9me3 and H3K36me3 in Rh30 cells. The test is classed as cell-based. Conditions: 24 hr.
The target of test [5] is T3, KDM4B (Homo sapiens, UniProt O94953).
T3 sequence (O94953 1-348): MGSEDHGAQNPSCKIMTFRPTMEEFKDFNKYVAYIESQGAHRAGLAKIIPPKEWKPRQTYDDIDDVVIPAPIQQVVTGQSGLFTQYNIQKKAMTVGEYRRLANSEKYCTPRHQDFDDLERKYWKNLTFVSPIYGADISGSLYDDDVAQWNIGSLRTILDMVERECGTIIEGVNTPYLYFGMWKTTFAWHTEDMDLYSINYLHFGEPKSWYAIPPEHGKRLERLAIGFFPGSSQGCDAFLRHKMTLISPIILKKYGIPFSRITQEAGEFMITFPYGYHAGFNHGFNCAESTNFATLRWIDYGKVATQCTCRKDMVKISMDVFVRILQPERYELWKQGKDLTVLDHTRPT
The test can be described thus: biochemical. Conditions: for %Inhibition of KDM4B: at 15 μM, screening; for inhibition at 15 µM: read-out: %Inhibition of KDM4B; for KDM4B inhibitory activity (in words): Figure S2.

Another test deals with aRMS xenograft. The conditions noted are these: ref Kang et al., 2012; Lock et al., 2013; cited from earlier work.
For another test, the system named is eRMS xenograft. The conditions noted are these: ref Kang et al., 2012; Lock et al., 2013; cited from earlier work.
The next test deals with Rh30 cells. The test can be described thus: Crystal violet staining proliferation assay. The conditions noted are these: 5 days, at the concentrations that hit the targets. In kind it is cell-based.

“Also recorded” adds a separate entry of the source.

The term IC50 denotes the concentration at which inhibition is half-maximal. High values mean a need for much substance, low ones inhibition by little substance. In general, inhibition refers to the change of the read-out against control, counted positive when it falls.

Turning to `COC1=C2C[C@@H](C)C[C@H](OC)[C@H](O)[C@@H](C)/C=C(\C)[C@H](OC(N)=O)[C@@H](OC)/C=C\C=C(/C)C(=O)NC(=CC1=O)C2=O` [geldanamycin], at KDM4B [1], the “KDM4B activity in demethylating H3K9me3” value is “greatly inhibited KDM4B activity”. The “PAX3-FOXO1 expression (protein)” value in the test with PAX3-FOXO1 is on record as “reduced”. Besides, on KDM4B [2], the “KDM4B catalytic activity on its H3K9me3 and H3K36me3 substrates” value was “blocked KDM4B catalytic activity”. On KDM5A, the IC50 was less than 1 µM. Moreover, the IC50 on KDM4C was less than 1 µM. In test [3], this compound showed an H3K36me3 peaks decreased of 213 peaks and an H3K36me3 peaks increased of 1430 peaks. Moreover, the “peaks of H3K9me3 induced” value in test [3] (p < 0.05, logFC = 0.5) is recorded as “Four thousand four hundred six”. Also, in test [4], the “H3K9me3 and H3K36me3 levels” value was “induced an increase of H3K9me3 and H3K36me3”.

Take `CCc1c(O)cc(O)c(C(=O)c2ccc(OCCN3CCOCC3)c(OC)c2)c1CC(=O)N(CCOC)CCOC.Cl` [KW2478]: the “%Inhibition of KDM4B” value at KDM4B [5] was less than 15%.

As to `CN(NC(=O)CC(=O)NN(C)C(=S)c1ccccc1)C(=S)c1ccccc1` [STA-4783], the inhibition at 15 µM at KDM4B [5] is less than 15%.

Take `CC[C@@H](C)Nc1cc(C(=O)N[C@H]2C[C@H]3CC[C@@H](C2)N3c2ccc(C(=O)C3CC3)cn2)c(C)cc1C(N)=O` [XL888]: the “%Inhibition of KDM4B” value on KDM4B [5] is less than 15%.

With `CCNC(=O)c1noc(-c2cc(C(C)C)c(O)cc2O)c1-c1ccc(CN2CCOCC2)cc1` [NVP-AUY922], the inhibition at 15 µM at KDM4B [5] was less than 15%.

Regarding `CC(C)c1cc(-c2n[nH]c(=O)n2-c2ccc3c(ccn3C)c2)c(O)cc1O` [Ganetespib], in the test on aRMS xenograft, the aRMS xenograft growth result was “no effect”. In addition, at KDM4B [5], the “KDM4B inhibitory activity (in words)” value was “did not inhibit KDM4B activity” and the inhibition at 15 µM was less than 15%. Moreover, the eRMS xenograft growth result with eRMS xenograft is “no effect on either aRMS or eRMS xenograft growth”.

Take `CCOC(=O)c1ccnc(CNCC(=O)N(CC)CCN(C)C)c1` [KDM5-C70]: the anti-proliferative effect entry in the test with Rh30 cells is “no anti-proliferative effect”.

Turning to `CCOC(=O)CCNc1cc(N2CCc3ccccc3CC2)nc(-c2ccccn2)n1` [GSK-J4], the anti-proliferative effect result in the test with Rh30 cells is given as “no anti-proliferative effect”.

Consider `CC(C)c1cc(C(=O)N2Cc3ccc(CN4CCN(C)CC4)cc3C2)c(O)cc1O` [AT13387], for which the aRMS xenograft growth entry in the test with aRMS xenograft is “no effect”. Also, the “PAX3-FOXO1 expression (protein)” value in the test with PAX3-FOXO1 was “reduced the expression of PAX3-FOXO1”. Moreover, on KDM4B [5], the “KDM4B inhibitory activity (in words)” value is “minimal effect on KDM4B activity; also recorded: did not inhibit KDM4B activity” and the inhibition at 15 µM was less than 15%. Moreover, in the test with eRMS xenograft, the eRMS xenograft growth entry is given as “no effect on either aRMS or eRMS xenograft growth”.

On to `Cc1cc(C2CCCCC2)n(O)c(=O)c1` [ciclopirox], for which, at KDM4B [1], the “KDM4B activity in demethylating H3K9me3” value is given as “greatly inhibited KDM4B activity”.

In the case of `CC1(C)CC(=O)c2c(C(F)(F)F)nn(-c3ccc(C(N)=O)c(N[C@H]4CC[C@H](OC(=O)CN)CC4)c3)c2C1` [SNX-5422], the inhibition at 15 µM at KDM4B [5] was less than 15%.
